Laboratory results reported in patent US9387219B2, “Edible composition” (Conopco, Inc., priority 2011, dated 2016).
Where “and” joins values, the source holds several entries; their conditions need not be identical. Equal entries are not always repeated.

Legend:
GLUT2 = biological target: T1, GLUT2 (Homo sapiens, UniProt P11168); assay: Glucose transport inhibitor cell screening assay, 25 mM D-glucose for 30 minutes (GLUT2 inhibition); format: cell-based; details: for GLUT2 inhibitory activity (in words): Caco-2 cell model
T1 construct: endogenous in cells; host or cells: differentiated Caco-2 cell monolayers (ATCC)
T1 sequence (P11168 1-524): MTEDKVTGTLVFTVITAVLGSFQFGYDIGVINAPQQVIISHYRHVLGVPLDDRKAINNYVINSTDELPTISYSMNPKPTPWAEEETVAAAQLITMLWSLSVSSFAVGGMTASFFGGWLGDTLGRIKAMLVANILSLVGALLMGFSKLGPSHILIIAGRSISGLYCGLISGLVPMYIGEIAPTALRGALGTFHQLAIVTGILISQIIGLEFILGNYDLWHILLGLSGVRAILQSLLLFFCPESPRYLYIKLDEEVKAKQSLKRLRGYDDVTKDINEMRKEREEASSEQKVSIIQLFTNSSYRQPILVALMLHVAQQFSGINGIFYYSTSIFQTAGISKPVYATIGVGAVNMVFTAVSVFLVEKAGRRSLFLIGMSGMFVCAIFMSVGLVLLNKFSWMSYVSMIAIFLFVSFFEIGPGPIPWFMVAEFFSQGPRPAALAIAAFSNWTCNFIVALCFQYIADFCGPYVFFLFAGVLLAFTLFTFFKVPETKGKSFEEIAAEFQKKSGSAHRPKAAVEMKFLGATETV
Experimental: (§1) Human epithelial colorectal adenocarcinoma (Caco-2) cells were obtained from the American Type Culture Collection (ATCC) and cultured in Growth Medium consisting of Dulbecco's modified Eagle's medium (containing Glutamax-1, 4.5 g/L D-glucose and 25 mM 4-(2-hydroxyethyl)-1-piperazine ethanesulphonic acid (Hepes) (Invitrogen)), 10% foetal bovine serum (Sigma), 1% non-essential amino acids (Invitrogen) and 1 mM sodium pyruvate (Sigma)). The cells were routinely passaged at approximately 80% confluence using TrypLE™ Express Stable Trypsin-Like Enzyme (Invitrogen) to detach the cells, and seeded at approximately 114 cells per mm^2 in fresh tissue culture flasks. Only cells between the passage numbers 45 and 49 were used for experiments.
(§2) Corning® HTS Transwell® 96 well permeable insert supports (Sigma) were collagen coated with 40 μl of 50 μg/ml rat tail collagen type I (BD Biosciences) in 0.02 M acetic acid for one hour at room temperature under sterile conditions. The inserts were washed twice in phosphate buffered saline (PBS (Invitrogen)) and the Caco-2 cells seeded into the inserts at 9.6×10^5 cell/ml (75 μl per insert) in Growth Medium and 30 ml of Growth Medium added to the feeder plate below. The cells were left to attach to the collagen matrix and form monolayers over 48 hours at 37° C., 5% CO2. Both inserts and feeder plate were washed in PBS and the cells incubated with BD Entero-STIM™ Enterocyte Differentiation Medium containing MITO+™ Serum Extender solution (both BD Biosciences), 75 μl per insert and 30 ml in the feeder plate, for a further 48 hours at 37° C., 5% CO2.
(§3) Differentiated cell monolayers were washed gently in Dulbecco's Phosphate Buffered Saline containing CaCl2 and MgCl2 (PBS(+) (Invitrogen)) and the inserts transferred to a new Corning® HTS Transwell®-96 well receiver plate (Sigma). The cells were incubated with fresh PBS(+) (75 μl per insert and 225 μl per well) for 60 minutes at 37° C., 5% CO2. The PBS(+) was gently aspirated and replaced with 75 μl per insert of either 5 mM D-glucose (Sigma)±test active or 25 mM D-glucose±test active in triplicate and 225 μl per well of PBS(+) quickly added to each well. The 5 mM glucose wells and the 25 mM glucose wells were incubated at 37° C., 5% CO2 for 15 minutes and 30 minutes, respectively. Details of all the actives tested are found in table 1. The cell inserts were transferred to a new receiver plate, the supernatant gently aspirated from the cells and replaced with 100 μl of 100 μM of Lucifer Yellow (Sigma) solution to confirm the integrity of the monolayers. 225 μl of PBS(+) was added to each well and incubated at 37° C., 5% CO2 for 1 hour. The cell inserts were then discarded and the permeability of the membranes to Lucifer Yellow checked by measuring the fluorescence of the samples at 485 nm (excitation) and 530 nm (emission) on a Spectramax Gemini EM fluorescence microplate reader.
(§4) The amount of glucose transported across the cell monolayers was measured using a glucose assay based on Invitrogen's Amplex Red Glucose/Glucose oxidase Assay Kit. Briefly, 50 μl of each test sample was transferred to a black sided/clear bottom 96-well plate (Greiner Bio-One) to which 100 μl of reaction buffer (0.5 μl 10 mM Ampliflu Red, 1 μl 10 U/ml Horse Radish peroxidase, 1 μl 100 U/ml glucose oxidase and 97.5 μl PBS (all Sigma)) was added. After 10 minutes incubation at room temperature, the fluorescence of the samples were measured at 530 nm (excitation) and 590 nm (emission) on a Spectramax Gemini EM fluorescence microplate reader and the glucose concentration extrapolated from a standard curve.
(§5) At higher D-glucose concentrations, the SGLT1 transporter becomes saturated and consequently the majority of glucose transport across the monolayer is driven by the low affinity, high capacity GLUT2 transporter that is targeted to the apical membrane only following an initial SGLT1-dependent transport of glucose.

SGLT1 = biological target: T2, SGLT1 (Homo sapiens, UniProt P13866); assay: Glucose transport inhibitor cell screening assay, 5 mM D-glucose for 15 minutes (SGLT1 inhibition); format: cell-based; details: for SGLT1 inhibitory activity (in words): Caco-2 cell model; for Class (assigned class of transporter inhibited): assigned from % inhibition at 5 mM and 25 mM D-glucose in Caco-2 cells
T2 construct: endogenous in cells; host or cells: differentiated Caco-2 cell monolayers (ATCC)
T2 sequence (P13866 1-664): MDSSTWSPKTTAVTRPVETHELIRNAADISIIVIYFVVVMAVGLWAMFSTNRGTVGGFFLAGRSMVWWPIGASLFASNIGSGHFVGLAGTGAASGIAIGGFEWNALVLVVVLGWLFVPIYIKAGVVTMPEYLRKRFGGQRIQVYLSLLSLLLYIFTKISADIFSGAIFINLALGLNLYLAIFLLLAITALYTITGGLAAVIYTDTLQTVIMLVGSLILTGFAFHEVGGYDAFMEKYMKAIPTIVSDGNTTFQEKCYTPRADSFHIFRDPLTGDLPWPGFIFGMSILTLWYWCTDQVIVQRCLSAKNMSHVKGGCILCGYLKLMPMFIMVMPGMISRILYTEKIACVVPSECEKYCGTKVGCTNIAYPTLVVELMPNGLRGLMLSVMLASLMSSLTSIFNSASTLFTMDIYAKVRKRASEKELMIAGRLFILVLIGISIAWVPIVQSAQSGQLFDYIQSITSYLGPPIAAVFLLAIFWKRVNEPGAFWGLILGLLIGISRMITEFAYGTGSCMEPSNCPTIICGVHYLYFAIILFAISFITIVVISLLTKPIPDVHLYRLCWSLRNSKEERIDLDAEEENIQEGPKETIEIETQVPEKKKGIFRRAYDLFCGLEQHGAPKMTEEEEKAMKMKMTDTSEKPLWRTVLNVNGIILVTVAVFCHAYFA
Experimental: as §1, §2, §3, §4, §5

[1] = biological target: T3, Human Lactase Phloridzin Hydrolase (hLPH) (Homo sapiens, UniProt P09848); assay: hLPH enzyme assay (glucoside hydrolysis by LPH extract from Caco-2 cells); format: in vitro ADME; details: for μM substrate hydrolysed/hr / Resistance to hydrolysis-% Q4G: glucoside 1.0 mM, 1 hour at 37° C.; for μM substrate hydrolysed/hr: 10% LPH extract (Caco2 cell-line), pH 6.0; for Resistance to hydrolysis-% Q4G: relative to Q4G, 10% LPH extract
T3 construct: endogenous in cells; host or cells: Caco-2 cells held at confluence for 21 days; trans-membrane protein extract passed through a G-25 Sephadex spin column
T3 sequence (P09848 869-1927): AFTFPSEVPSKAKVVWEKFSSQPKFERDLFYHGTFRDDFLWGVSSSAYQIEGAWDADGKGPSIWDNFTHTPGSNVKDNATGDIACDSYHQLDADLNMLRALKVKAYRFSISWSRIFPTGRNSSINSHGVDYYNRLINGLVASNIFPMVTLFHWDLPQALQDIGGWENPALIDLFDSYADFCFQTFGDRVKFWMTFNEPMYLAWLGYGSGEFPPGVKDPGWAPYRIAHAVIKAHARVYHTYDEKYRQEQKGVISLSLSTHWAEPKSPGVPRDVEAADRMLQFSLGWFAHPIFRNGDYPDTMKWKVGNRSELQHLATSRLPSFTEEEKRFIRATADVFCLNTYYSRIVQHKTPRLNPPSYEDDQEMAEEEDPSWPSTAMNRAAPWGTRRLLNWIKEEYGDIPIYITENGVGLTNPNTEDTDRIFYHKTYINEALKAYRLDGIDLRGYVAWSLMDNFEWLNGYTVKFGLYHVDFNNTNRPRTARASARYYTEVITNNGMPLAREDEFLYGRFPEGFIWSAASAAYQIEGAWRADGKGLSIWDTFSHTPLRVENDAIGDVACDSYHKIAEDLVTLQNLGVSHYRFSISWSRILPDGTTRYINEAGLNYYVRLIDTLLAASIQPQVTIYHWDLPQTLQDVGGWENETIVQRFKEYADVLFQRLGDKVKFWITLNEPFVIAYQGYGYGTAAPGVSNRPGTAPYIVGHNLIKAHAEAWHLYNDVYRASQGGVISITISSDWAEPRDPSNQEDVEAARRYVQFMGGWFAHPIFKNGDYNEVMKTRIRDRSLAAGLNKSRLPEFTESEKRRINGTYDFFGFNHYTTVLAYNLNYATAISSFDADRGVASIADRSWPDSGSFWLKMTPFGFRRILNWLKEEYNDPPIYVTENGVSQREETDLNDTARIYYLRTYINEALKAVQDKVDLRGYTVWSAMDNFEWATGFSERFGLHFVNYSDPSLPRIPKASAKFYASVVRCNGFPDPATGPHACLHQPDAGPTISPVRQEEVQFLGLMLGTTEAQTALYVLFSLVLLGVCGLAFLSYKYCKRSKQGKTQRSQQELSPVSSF
Experimental: Extracts were stored at −80° C. in 50 ul aliquots. Prior to use extracts were semi-purified, removing low molecular weight interfering components by passing through a small G-25 Sephadex 50-100 μl spin-column (Roche or ThermoFisher Scientific). 10 μl of semi-purified LPH extract was added to 90 μl of glucoside (1.0 mM final concentration) in 0.1 M maleate (Sigma) buffer, pH 6.0 and incubated for 60 minutes at 37° C. The reaction was terminated by addition of 200 μl 2M Tris (Sigma), pH 8.0. […] This allowed a full recovery of glucose which was measured using the Amplex® Red Glucose/Glucose Oxidase Assay. […] Fluorescence was read on a SpectraMax Gemini EM SN plate reader (Molecular Devices) (excitation. 530 nm and emission at 590 nm).

[2] = differentiated Caco-2 monolayer, 30 minutes, active at 150 uM
[3] = differentiated Caco-2 monolayer, 5 mM D-glucose, 15 minutes, active at 300 uM

| Structure (SMILES) | % Glucose Transport inhibition 25 mM (GLUT2; [2]) [%] | SGLT1 inhibitory activity (in words) (SGLT1; 5 mM D-glucose) | Class (assigned class of transporter inhibited) (SGLT1) | μM substrate hydrolysed/hr [1] | Resistance to hydrolysis-% Q4G [1] [%] | further results |
| --- | --- | --- | --- | --- | --- | --- |
| O=c1cc(-c2ccc(O)cc2)oc2c([C@@H]3O[C@H](CO)[C@@H](O)[C@H](O)[C@H]3O)c(O)cc(O)c12 [Apigenin-8-C-glucoside] | 5.76 | inhibition of SGLT1 | SGLT1 | 0.685 μM substrate hydrolysed/hr | 77.90 | % Glucose Transport inhibition 5 mM (SGLT1; [3]): 33.84% |
| O=c1c(O[C@@H]2O[C@H](CO)[C@@H](O)[C@H](O)[C@H]2O)c(-c2ccc(O)cc2)oc2cc(O)cc(O)c12 [Kaempferol 3-O-glucoside] |  | inhibition of SGLT1 | SGLT1 | 0.224 μM substrate hydrolysed/hr |  | Resistance to hydrolysis-% Q4G ([1]; listed as K3G): 92.8% and 92.78% |
| O=c1c(O)c(-c2ccc(O)cc2)oc2cc(O[C@@H]3O[C@H](CO)[C@@H](O)[C@H](O)[C@H]3O)cc(O)c12 [Kaempferol 7-O-glucoside] | 14.42 | inhibition of SGLT1 | SGLT1 | 0.618 μM substrate hydrolysed/hr | 80.05 | % Glucose Transport inhibition 5 mM (SGLT1; [3]): 43.89% |
| O=c1cc(-c2ccc(O)c(O)c2)oc2cc(O[C@@H]3O[C@H](CO)[C@@H](O)[C@H](O)[C@H]3O)cc(O)c12 [Luteolin-7-glucoside] | 17.03 | inhibition of SGLT1 | SGLT1 | 0.814 μM substrate hydrolysed/hr | 73.72 | % Glucose Transport inhibition 5 mM (SGLT1; [3]): 44.09% |
| O=C1CC(c2ccc(O)cc2)Oc2cc(O[C@@H]3O[C@H](CO)[C@@H](O)[C@H](O)[C@H]3O)cc(O)c21 (stereo partly drawn) [Naringenin-7-O-glucoside] | 0.06 | inhibition of SGLT1 | SGLT1 | 1.564 μM substrate hydrolysed/hr |  | Resistance to hydrolysis-% Q4G ([1]; listed as N7G): 49.5% and 49.52% |
| OC[C@H]1O[C@@H](Oc2cc3c(O)cc(O)cc3[o+]c2-c2ccc(O)cc2)[C@H](O)[C@@H](O)[C@@H]1O [Pelargonidin-3-glucoside] |  | inhibition of SGLT1 | SGLT1 | 1.272 μM substrate hydrolysed/hr | 58.94 |  |
| O=C(CCc1ccc(O)cc1)c1c(O)cc(O)cc1O[C@@H]1O[C@H](CO)[C@@H](O)[C@H](O)[C@H]1O [Phloridzin, reference compound] |  |  |  | 0.507 μM substrate hydrolysed/hr | 83.64 |  |
| O=c1c(O[C@@H]2O[C@H](CO)[C@@H](O)[C@H](O)[C@H]2O)c(-c2ccc(O)c(O)c2)oc2cc(O)cc(O)c12 [Quercetin-3-glucoside] |  | inhibition of SGLT1 | SGLT1 | 0.178 μM substrate hydrolysed/hr |  |  |
| O=c1c(O)c(-c2ccc(O[C@@H]3O[C@H](CO)[C@@H](O)[C@H](O)[C@H]3O)c(O)c2)oc2cc(O)cc(O)c12 [Quercetin-4-glucoside, reference compound] |  | inhibition of SGLT1 | SGLT1 |  |  | degradation by hLPH (in words) ([1]; Caco-2): highest degree of degradation by hLPH |
| O=c1c(O)c(-c2ccc(O)c(O)c2)oc2cc(O)cc(O)c12 [Quercetin] |  |  | GLUT2 (GLUT2 inhibitors having ≧20% inhibition at both 5 mM and 25 mM D-glucose levels) |  |  | inhibition at 150 µM (GLUT2; [2]): 61.4%; inhibition at 300 µM (SGLT1; [3]): 80.8% |
| O=C(O)/C=C/c1ccc(O)c(O)c1 [caffeic acid] |  | no inhibitory activity |  |  |  | GLUT2 inhibitory activity (in words) (GLUT2): no inhibitory activity |
| O=C(/C=C/c1ccc(O)c(O)c1)O[C@@H]1C[C@](O)(C(=O)O)C[C@@H](O)[C@H]1O [chlorogenic acid] |  | no inhibitory activity |  |  |  | GLUT2 inhibitory activity (in words) (GLUT2): no inhibitory activity |
| O=C(/C=C/c1ccc(O)c(O)c1)O[C@H](Cc1ccc(O)c(O)c1)C(=O)O [rosmarinic acid] |  | no inhibitory activity |  |  |  | GLUT2 inhibitory activity (in words) (GLUT2): no inhibitory activity |
